Experiments:
B16F10 cells = assay: Melanoma model, B16F10 subcutaneous implantation; assay type: in vivo; settings: IL-17−/− mice
Experimental: (§1) Monoclonal antibodies were purchased from BD Biosciences or eBioscience. For intracellular cytokine staining (ICS), cells were first restimulated by PMA/ionomycin for 5 hours in the presence of GolgiStop (BD Biosciences), followed by surface epitope staining markers before being fixed/permeabilized (BD Cytofix/Cytoperm™) and stained with antibodies targeting intracellular antigens. Cells were finally fixed with 1.5% formaldehyde for 10 minutes at room temperature and analyzed on a FACSVerse flow cytometer (BD Bioscience). Data were analyzed using FlowJo software (Tree Star Inc.).
(§2) For Pan18-subcutaneous implantation, 5×10^5 Pan18 cells were administered to wild-type (WT) or IL-17^−/− mice. Genipin (5 mg/kg, 10 mg/kg, or 30 mg/kg, i.p., every two days) was administered to Pan18-bearing mice for 3 weeks. For 3036-subcutanous implantation, 2×10^5 3036 cells were administered to WT mice. Genipin (10 mg/kg, i.p., every two days) and recombinant anti-IL-17 receptor antibody (αIL-17RA) (1 mg/kg, i.v., once a week) were administered to 3036-bearing mice for 3 weeks. Tumor volumes were evaluated every 2 days. For the orthotopic tumor modelling, mice pancreases were injected with 2×10^5 Pan18 cells and monitored for tumor growth weekly using IVIS kinetics imaging system (Caliper Life-Sciences). Genipin (10 mg/kg, i.p., every two days) or αIL-17RA (1 mg/kg, i.v., once a week) was administered 1 week after tumor implantation. Mice were sacrificed 35 days after tumor induction and tumors weighed. For spontaneous pancreatic cancer model, Cre-dependent conditional knockin mutations of KrasG12D Kras^+/LSLG12D mice (B6; 129-Kras2) were obtained from the Mouse Models of Human Cancer Consortium. Elas-CreERT; Kras^+/LSLG12D mice was generated by breeding Kras^+/LSLG12D mice with Elas-CreER mice obtained from the Level Transgenic Center. To induce the expression of Kras^+/LSLG12D in acinar cells, 5-week-old Elas-CreERT; Kras^+/LSLG12D male mice were injected with 100 μl of tamoxifen (20 mg/ml, i.p., three times per week) for 1 week. To induce chronic inflammation and tumors, 100 μl of cerulein (50 μg/ml, i.p., six times per week) (BACHEM) was given to the mice for 3 weeks. Then, the mice were injected with genipin (10 mg/kg, i.p., every two days) and αIL-17RA (1 mg/kg, i.v., once a week) until the end of the experiment, and overall survival was monitored. For genetically CD4/CD8-specific UCP2 deletion tumor modelling, we generated CD4Cre×UCP2^f/f mice by crossing loxP-UCP2-loxP mice with CD4Cre mice. CD4Cre×UCP2^f/f, WT, and loxP control mice underwent subcutaneous implantation of 2×10^5 Pan18 cells, followed by treatment with αIL-17RA (1 mg/kg, i.v., once a week) for 3 weeks. For melanoma modelling, IL-17/-and WT mice underwent subcutaneous implantation of 5×10^5 B16F10 cells, followed by treatment with genipin (10 mg/kg, i.p., every two days) for 3 weeks. For CD8 depletion tumor modelling, IL-17^−/− mice underwent subcutaneous implantation of 2×10^5 Pan18 cells, followed by treatment with genipin (10 mg/kg, i.p., every two days) and CD8 neutralizing antibody (5 mg/kg, i.v., once a week) for 3 weeks. Tumor volumes were evaluated every 3 days.

Pan18 cells [1] = assay: Tumorigenicity assay, Pan18 subcutaneous implantation (PDAC-bearing mice); assay type: in vivo
Experimental: as §1, §2
Serum levels of IFN-γ, IL-17, TNF-α, IL-12, IL-6, and TGF-β were measured using commercial enzyme-linked immunosorbent assay (ELISA) kits (BD Biosciences; R&D systems; BioLegend) according to the manufacturer's protocol.
Total protein concentration of the tumor lysates was quantified by a Bradford assay. Tumoral chemokine profiles were determined by analyzing 250 μg protein from the tumor lysates using a Proteome Profiler™ Mouse Chemokine Array Kit (ARY020, R&D Systems) according to the manufacturer's instructions. […]

PBMC of PDAC patients = assay: Ex vivo genipin treatment of PBMC of PDAC patients, flow cytometry; assay type: cell-based, human
Experimental: as §1
(§3) PDAC human subject study was approved by the Research Ethics Committee of China Medical University & Hospital (CMUH109-REC2-148). 10 ml of fresh blood and 0.1-0.5 mm^3 of tumor mass were collected on the same day from patients who underwent surgical resection. Monocytes were isolated from the patients' peripheral blood mononuclear cell (PBMC) or tumor mass. Cells were resuspended in RPMI medium containing 10% FBS and seeded at a density of 2×10^5/well in a 12-well plate. Cells were treated with genipin (12.5 μM, 25 μM) and incubated overnight before staining for the flow cytometry analysis.

Pan18 cells [2] = assay: Orthotopic PDAC tumor model (Pan18 cells injected in pancreas); assay type: in vivo, mice; settings: for Survival, bioluminescent tumor growth and tumor weight: FIG. 5H-5J
Experimental: as §1, §2

tumors of PDAC patients = assay: Ex vivo genipin treatment of tumors of PDAC patients, flow cytometry; assay type: cell-based, human
Experimental: as §1, §3

[3] = IL-17−/− mice, genipin 5 or 10 mg/kg, dose-dependent, FIG. 5C
[4] = IL-17−/− mice, genipin, data not shown
[5] = WT mice, escalating doses of genipin, FIG. 3S

SMILES: COC(=O)C1=CO[C@@H](O)[C@@H]2C(CO)=CC[C@H]12 [genipin]
- Tumor growth (tumor volume) (B16F10 cells; genipin 10 mg/kg i.p. every two days, 3 weeks, FIG. 7B): additional effect on the inhibition of tumor growth
- Population of Tc1 cells (B16F10 cells; genipin 10 mg/kg, FIG. 7C): increased the expansion of Tc1 cells
- Population of Th1 cells (B16F10 cells; genipin 10 mg/kg, FIG. 7D): not significantly impacting
- Population of Treg cells (B16F10 cells; genipin 10 mg/kg, FIG. 7E): not significantly impacting
- Prevalence of MDSC (B16F10 cells; genipin 10 mg/kg, FIG. 7F): decreasing prevalence of MDSC
- Tumor growth (tumor volume, tumor weight) (Pan18 cells [1]; IL-17−/− mice, genipin 5 or 10 mg/kg i.p. every two days, 3 weeks, FIG. 5A-5B): synergistic effect to inhibit tumor growth
- Serum IFN-γ (Pan18 cells [1]; [3]): increased
- Serum IL-12 (Pan18 cells [1]; [3]): increased
- Serum TNF-α (Pan18 cells [1]; [3]): increased
- Numbers of Tc1 cells (Pan18 cells [1]; IL-17−/− mice, genipin, FIG. 5D): increased numbers of Tc1 cells
- Numbers of MDSC (Pan18 cells [1]; IL-17−/− mice, genipin, FIG. 5G): decreased numbers of MDSC
- IL-17-ablation driven change in CCL2 level (Pan18 cells [1]; [4]): had no effects
- IL-17-ablation driven change in CXCL10 level (Pan18 cells [1]; [4]): had no effects
- Absolute numbers of Tc1 cells (Pan18 cells [1]; WT mice, escalating doses of genipin i.p. every two days, 3 weeks, FIG. 3A-3C): increases in the absolute numbers
- Serum IFN-γ (Pan18 cells [1]; [5]): increased
- Serum IL-6 (Pan18 cells [1]; [5]): increased
- Serum IL-12 (Pan18 cells [1]; [5]): increased
- Serum TNF-α (Pan18 cells [1]; [5]): increased
- Serum IL-17 (Pan18 cells [1]; WT mice, escalating doses of genipin, end of experiment, FIG. 3S): increased
- Tumorigenesis (tumor volume, tumor weight) (Pan18 cells [1]; WT mice, genipin alone, FIG. 3T-3U): did not suppress tumorigenesis
- Absolute numbers of Th1 cells (Pan18 cells [1]; WT mice, genipin i.p. every two days, 3 weeks, FIG. 3D-3F): increases in the absolute numbers
- Numbers of Tc17 cells (Pan18 cells [1]; WT mice, genipin i.p. every two days, 3 weeks, FIG. 3G-3I): increased
- Numbers of Th17 cells (Pan18 cells [1]; WT mice, genipin i.p. every two days, 3 weeks, FIG. 3J-3L): increased
- Numbers of Treg cells in the lymph nodes and spleens (Pan18 cells [1]; WT mice, genipin i.p., FIG. 3M-3O): decreased
- Numbers of MDSC in the lymph nodes and spleens (Pan18 cells [1]; WT mice, genipin i.p., FIG. 3P-3R): decreased
- Tumor infiltrating MDSC (Pan18 cells [1]; WT mice, genipin i.p., tumor): no changes
- Tumor infiltrating Tc1 cells (Pan18 cells [1]; WT mice, genipin i.p., tumor): no changes
- Tumor infiltrating Th1 cells (Pan18 cells [1]; WT mice, genipin i.p., tumor): no changes
- Tc1 cells (IFN-γ-producing CD8+ T cells) (PBMC of PDAC patients; genipin 12.5, 25 μM overnight, FIG. 8A-8B): increased Tc1 cells
- Th1 cells population (IFN-γ-producing CD4+ T cells) (PBMC of PDAC patients; genipin overnight, FIG. 8E): no significant changes
- Th17 cells (IL-17-producing CD4+ T cells) (PBMC of PDAC patients; genipin overnight, FIG. 8F): did not increase
- Survival, bioluminescent tumor growth and tumor weight (Pan18 cells [2]; IL-17−/− mice, genipin 10 mg/kg i.p. every two days, 3 weeks): significant benefit
- Tumor-infiltrating population of Tc1 cells (Pan18 cells [2]; IL-17−/− mice, genipin 10 mg/kg, FIG. 5K): increased
- Tumor-infiltrating population of Th1 cells (Pan18 cells [2]; IL-17−/− mice, genipin 10 mg/kg, FIG. 5L): increased
- Tumor-infiltrating population of MDSC (Pan18 cells [2]; IL-17−/− mice, genipin 10 mg/kg, FIG. 5N): increased
- Survival, bioluminescent tumor growth and tumor weight (Pan18 cells [2]; WT mice, genipin 10 mg/kg alone (singular UCP2 targeting)): no impact
- Tc1 cells (IFN-γ-producing CD8+ T cells) (tumors of PDAC patients; genipin 12.5, 25 μM overnight, FIG. 8C-8D): increased Tc1 cells
- Th1 cells population (IFN-γ-producing CD4+ T cells) (tumors of PDAC patients; genipin overnight, FIG. 8G): no significant changes
- Th17 cells (IL-17-producing CD4+ T cells) (tumors of PDAC patients; genipin overnight, FIG. 8H): did not increase

Source: patent US20250018030A1, “PHARMACEUTICAL COMPOSITION FOR PROMOTING CANCER IMMUNOTHERAPY AND METHOD FOR PROMOTING CANCER IMMUNOTHERAPY” (China Medical University, priority 2023, published 2025)
